How the values were obtained:
streptavidin = streptavidin (Streptomyces avidinii, UniProt P22629); assay: homogeneous on-line mass spectrometric biochemical assay, streptavidin / fluorescein-biotin reporter; format: binding; settings: for effect of analyte injection on binding of reporter fluorescein-biotin to streptavidin (SIM MS signal at m/z 390): equal concentrations injected, 32 nmol/l streptavidin, 96 nmol/l fluorescein-biotin, FIG. 2
Description: Streptavidin is a well-known affinity protein with a high affinity for biotin and biotinylated compounds. To a carrier solution consisting of 10 mmol/L ammonium formate/methanol (90:10, v/v) pumped at a flow rate of 50 μl/min a solution of 32 nmol/l streptavidin dissolved in 10 mmol/L ammonium formate was added at a flow rate of 50 μl/min. The mixture was pumped through a knitted […]. poly(tetrafluoroethylene) reaction coil with an internal volume of 17 μl. Subsequently, a solution of 96 nmol/l fluorescein-biotin dissolved in 10 mmol/L ammonium formate/methanol (90:10, v/v) was added at a flow rate of 100 μl/min. The mixture was then pumped through a knitted […]. poly(tetrafluoroethylene) reaction coil with an internal volume of 33 μl and subsequently introduced into a mass spectrometer equipped with an electrospray ionization (ESI) source. Mass spectrometry was operated in selected-ion monitoring (SIM) in the positive-ion (PI) mode on [M+H]+and on one or more intense fragment ions. The ESI source conditions for the streptavidin/biotin system: source temperature, 80° C.; capillary voltage, 3.2 kV. The sampling cone voltage was 30 and 60 V for biotin and fluorescein-labeled biotin, respectively.
At point 1, only carrier buffer was pumped into the mass spectrometer providing a reference background signal. […] At point 3, the streptavidin pump was switched on.

[1] = system: fab fragments of anti-digoxigenin antibodies (fab anti-digoxigenin); assay: homogeneous on-line mass spectrometric biochemical assay, fab anti-digoxigenin / digoxigenin reporter; format: binding; settings: 100 nmol/l fab anti-digoxigenin, 200 nmol/l digoxigenin; FIG. 3, point 4
Description: To a carrier solution consisting of 10 mmol/L ammonium formate/methanol (90:10, v/v) pumped at a flow rate of 50 μl/min a solution of 100 nmol/l fab anti-digoxigenin dissolved in 10 mmol/L ammonium formate was added at a flow rate of 50 μl/min. The mixture was pumped through a knitted 300 μm i.d. poly(tetrafluoroethylene) reaction coil with an internal volume of 65 μl. Subsequently, a solution of 200 nmol/l digoxigenin dissolved in 10 mmol/L ammonium formate/methanol (90:10, v/v) is added at a flow rate of 100 ill/min. The mixture was then pumped through a knitted 300 μm i.d. poly(tetrafluoroethylene) reaction coil with an internal volume of 33 μl and subsequently introduced into a mass spectrometer equipped with an electrospray ionization (ESI) source. Mass spectrometry was operated in selected-ion monitoring (SIM) in the positive-ion (PI) mode on [M+H]+and on one or more intense fragment ions.
At point 1, only carrier buffer was pumped into the mass spectrometer providing a reference background signal. At point 2, the digoxigenin pump was switched on leading to an increase of the selected-ion monitoring MS signal at m/z 408 (the ammonium adduct of digoxigenin). At point 3, the fab anti-digoxigenin pump was switched on.

Chain of streptavidin (P22629 25-183): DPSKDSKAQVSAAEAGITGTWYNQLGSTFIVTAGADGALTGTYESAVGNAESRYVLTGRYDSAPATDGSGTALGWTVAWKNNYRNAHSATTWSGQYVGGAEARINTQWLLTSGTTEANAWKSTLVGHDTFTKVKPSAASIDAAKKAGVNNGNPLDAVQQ

Row | Compound | effect of analyte injection on binding of reporter fluorescein-biotin to streptavidin (SIM MS signal at m/z 390) (streptavidin) | other results
1 | fluorescein-biotin | – | effect of adding streptavidin on free reporter ligand (SIM MS signal at m/z 390) (streptavidin; FIG. 1, point 3): decrease of the concentration of free fluorescein-biotin
2 | C[C@H]1O[C@@H](O[C@H]2[C@@H](O)C[C@H](O[C@H]3[C@@H](O)C[C@H](O[C@H]4CC[C@@]5(C)[C@H](CC[C@@H]6[C@@H]5C[C@@H](O)[C@]5(C)[C@@H](C7=CC(=O)OC7)CC[C@]65O)C4)O[C@@H]3C)O[C@@H]2C)C[C@H](O)[C@@H]1O [digoxin] | – | effect of injection on free fab anti-digoxigenin binding sites / free digoxigenin concentration (SIM MS signal at m/z 408) [1]: decrease of free fab anti-digoxigenin binding sites and an increase of the free digoxigenin concentration
3 | O=C(O)CCCC[C@@H]1SC[C@@H]2NC(=O)N[C@@H]21 [biotin] | capable to prevent the binding of the reporter molecule, fluorescein-biotin, to streptavidin | effect of injection on free streptavidin binding sites / free fluorescein-biotin concentration (SIM MS signal at m/z 390) (streptavidin; FIG. 1, point 4): decrease of free streptavidin binding sites and an increase of the free fluorescein-biotin concentration
4 | NNC(=O)CCCCCNC(=O)CCCC[C@@H]1SC[C@@H]2NC(=O)N[C@@H]21 [N-biotinyl-6-aminocaprioc hydrazide] | capable to prevent the binding of the reporter molecule, fluorescein-biotin, to streptavidin | –
5 | N[C@@H](CCCCNC(=O)CCCC[C@@H]1SC[C@@H]2NC(=O)N[C@@H]21)C(=O)O [N-biotin-L-lysine] | capable to prevent the binding of the reporter molecule, fluorescein-biotin, to streptavidin | –
